Measurements reported in ChEMBL document CHEMBL1201862, “PubChem BioAssay data set” (2004).
Values belong to the compound of their own block, whether it stands above or below them. The source made the active and inactive calls.

What was measured:
Hexokinase HKDC1 = target: T1, Hexokinase HKDC1 (Homo sapiens, UniProt Q2TB90); test: HKDC1 hexokinase inhibitors, dose response, biochemical, W721R variant (AID 504729); format: functional
T1 sequence (Q2TB90 whole entry): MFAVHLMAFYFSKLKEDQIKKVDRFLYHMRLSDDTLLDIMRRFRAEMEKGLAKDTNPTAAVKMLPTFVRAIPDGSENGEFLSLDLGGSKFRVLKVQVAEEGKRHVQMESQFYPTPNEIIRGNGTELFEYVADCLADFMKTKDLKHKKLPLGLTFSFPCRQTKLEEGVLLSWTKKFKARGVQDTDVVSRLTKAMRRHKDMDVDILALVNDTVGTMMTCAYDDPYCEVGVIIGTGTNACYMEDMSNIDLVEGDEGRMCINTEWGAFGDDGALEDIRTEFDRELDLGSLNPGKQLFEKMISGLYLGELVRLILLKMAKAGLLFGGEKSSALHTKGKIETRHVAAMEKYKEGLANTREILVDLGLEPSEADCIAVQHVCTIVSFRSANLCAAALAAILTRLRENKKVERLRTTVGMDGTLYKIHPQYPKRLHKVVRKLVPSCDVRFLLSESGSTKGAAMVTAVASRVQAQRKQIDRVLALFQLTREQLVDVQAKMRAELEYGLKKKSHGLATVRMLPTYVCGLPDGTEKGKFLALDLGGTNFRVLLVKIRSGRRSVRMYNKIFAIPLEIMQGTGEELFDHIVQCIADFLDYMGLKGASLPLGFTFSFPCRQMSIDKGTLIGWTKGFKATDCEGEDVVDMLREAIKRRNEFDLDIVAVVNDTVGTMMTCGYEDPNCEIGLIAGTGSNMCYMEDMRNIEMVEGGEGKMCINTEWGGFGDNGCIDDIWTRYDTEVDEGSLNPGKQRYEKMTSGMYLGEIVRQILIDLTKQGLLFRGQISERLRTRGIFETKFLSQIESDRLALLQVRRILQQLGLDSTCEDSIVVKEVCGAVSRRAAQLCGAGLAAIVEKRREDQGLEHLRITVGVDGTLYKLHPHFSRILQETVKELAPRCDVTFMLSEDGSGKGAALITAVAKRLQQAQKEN

INS1 = test: beta cell apoptosis inhibitors, cytokine rescue, dose response, luminescence, retest (AID 449756); format: functional, cell-based; details: Rattus norvegicus;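 further: cell death triggered by IL-1 beta plus TNF-alpha plus IFN-gamma mixture; protective hits raise ATP signal compared with cytokine alone wells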
[1] = target: Peroxisome proliferator-activated receptor gamma/Nuclear receptor corepressor 2 (Homo sapiens, UniProt P37231+Q9Y618); format: functional
[2] = target: cAMP-dependent protein kinase catalytic subunit PRKX (Homo sapiens, UniProt P51817); format: functional
[3] = target: Serine/threonine-protein kinase pim-2 (Homo sapiens, UniProt Q9P1W9); format: functional;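 further: value comes from a broad kinase panel profiling study in which PIM2 was one of the panel members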
[4] = target: Receptor tyrosine-protein kinase erbB-2 (Homo sapiens, UniProt P04626); test: Navigating the Kinome. Panel member name: ERBB2; format: functional
[5] = target: Mitogen-activated protein kinase kinase kinase 20 (Homo sapiens, UniProt Q9NYL2); format: functional
Misshapen-like kinase 1 = Misshapen-like kinase 1 (Homo sapiens, UniProt Q8N4C8); format: functional;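 further: kinome panel screen with MINK as the panel member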
[6] = target: Protein kinase C zeta type (Homo sapiens, UniProt Q05513); format: functional;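 further: measured as one member of a broad kinase profiling panel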
[7] = target: Dual specificity tyrosine-phosphorylation-regulated kinase 1B (Homo sapiens, UniProt Q9Y463); test: Navigating the Kinome. Panel member name: DYRK1B; format: functional
[8] = target: Serine/threonine-protein kinase D3 (Homo sapiens, UniProt O94806); format: functional;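 further: determined within a kinase panel screen, with PRKCN as the panel member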
[9] = target: Serine/threonine-protein kinase N2 (Homo sapiens, UniProt Q16513); format: functional
[10] = target: Serine/threonine-protein kinase PLK1 (Homo sapiens, UniProt P53350); format: functional;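 further: PLK1 measured as one member of a kinome-wide profiling panel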
[11] = target: Serine/threonine-protein kinase Chk2 (Homo sapiens, UniProt O96017); format: functional;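 further: CHEK2 entry within a kinome-wide screening panel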
[12] = target: Serine/threonine-protein kinase pim-3 (Homo sapiens, UniProt Q86V86); format: functional;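 further: value obtained as one member of a broad kinase panel profiling effort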
[13] = target: Leukocyte tyrosine kinase receptor (Homo sapiens, UniProt P29376); test: Navigating the Kinome. Panel member name: LTK; format: functional
Aminopeptidase N = target: T2, Aminopeptidase N (Plasmodium falciparum FcB1/Columbia, UniProt O96935); test: P. falciparum M1AAP inhibitors, biochemical, fluorogenic H-Leu-NHMec substrate, 1536-well (AID 1445); parameters: species or system Plasmodium falciparum 3D7, 3D7
T2 sequence (O96935 whole entry): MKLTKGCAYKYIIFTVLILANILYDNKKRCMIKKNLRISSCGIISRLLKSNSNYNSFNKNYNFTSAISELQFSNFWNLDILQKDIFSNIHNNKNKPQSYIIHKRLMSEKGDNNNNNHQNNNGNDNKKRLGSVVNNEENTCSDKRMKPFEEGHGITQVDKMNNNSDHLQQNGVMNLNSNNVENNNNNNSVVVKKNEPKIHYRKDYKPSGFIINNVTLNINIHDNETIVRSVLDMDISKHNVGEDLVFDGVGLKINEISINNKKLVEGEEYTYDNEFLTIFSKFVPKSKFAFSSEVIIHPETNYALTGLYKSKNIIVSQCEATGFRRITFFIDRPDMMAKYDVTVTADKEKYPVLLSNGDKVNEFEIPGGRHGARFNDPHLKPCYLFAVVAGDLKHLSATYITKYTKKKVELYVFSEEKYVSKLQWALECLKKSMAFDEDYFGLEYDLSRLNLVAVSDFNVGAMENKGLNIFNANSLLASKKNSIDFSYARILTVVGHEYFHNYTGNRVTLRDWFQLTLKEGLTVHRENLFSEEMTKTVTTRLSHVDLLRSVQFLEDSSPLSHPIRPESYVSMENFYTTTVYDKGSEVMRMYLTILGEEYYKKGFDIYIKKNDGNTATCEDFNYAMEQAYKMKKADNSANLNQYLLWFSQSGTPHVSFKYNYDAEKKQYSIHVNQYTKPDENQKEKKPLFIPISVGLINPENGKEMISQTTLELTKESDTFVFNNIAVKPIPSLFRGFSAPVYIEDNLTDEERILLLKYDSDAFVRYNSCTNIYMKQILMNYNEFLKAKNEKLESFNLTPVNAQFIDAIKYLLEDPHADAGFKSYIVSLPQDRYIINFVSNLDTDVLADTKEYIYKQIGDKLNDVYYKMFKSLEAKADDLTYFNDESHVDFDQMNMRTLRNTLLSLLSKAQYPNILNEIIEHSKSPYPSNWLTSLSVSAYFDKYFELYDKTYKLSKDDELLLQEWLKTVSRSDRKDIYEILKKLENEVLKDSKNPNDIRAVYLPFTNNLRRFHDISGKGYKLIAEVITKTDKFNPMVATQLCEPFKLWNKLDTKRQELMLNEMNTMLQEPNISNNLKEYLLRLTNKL

[14] = target: Envelope glycoprotein gp160 (Human immunodeficiency virus 1, UniProt Q6QLK5); test: inhibitors of HIV fusion peptide binding, primary screen, biochemical, uHTS, fluorescence dequenching (AID 1986)
Sequence of Envelope glycoprotein gp160 (Q6QLK5 whole entry, the tested form may be a part): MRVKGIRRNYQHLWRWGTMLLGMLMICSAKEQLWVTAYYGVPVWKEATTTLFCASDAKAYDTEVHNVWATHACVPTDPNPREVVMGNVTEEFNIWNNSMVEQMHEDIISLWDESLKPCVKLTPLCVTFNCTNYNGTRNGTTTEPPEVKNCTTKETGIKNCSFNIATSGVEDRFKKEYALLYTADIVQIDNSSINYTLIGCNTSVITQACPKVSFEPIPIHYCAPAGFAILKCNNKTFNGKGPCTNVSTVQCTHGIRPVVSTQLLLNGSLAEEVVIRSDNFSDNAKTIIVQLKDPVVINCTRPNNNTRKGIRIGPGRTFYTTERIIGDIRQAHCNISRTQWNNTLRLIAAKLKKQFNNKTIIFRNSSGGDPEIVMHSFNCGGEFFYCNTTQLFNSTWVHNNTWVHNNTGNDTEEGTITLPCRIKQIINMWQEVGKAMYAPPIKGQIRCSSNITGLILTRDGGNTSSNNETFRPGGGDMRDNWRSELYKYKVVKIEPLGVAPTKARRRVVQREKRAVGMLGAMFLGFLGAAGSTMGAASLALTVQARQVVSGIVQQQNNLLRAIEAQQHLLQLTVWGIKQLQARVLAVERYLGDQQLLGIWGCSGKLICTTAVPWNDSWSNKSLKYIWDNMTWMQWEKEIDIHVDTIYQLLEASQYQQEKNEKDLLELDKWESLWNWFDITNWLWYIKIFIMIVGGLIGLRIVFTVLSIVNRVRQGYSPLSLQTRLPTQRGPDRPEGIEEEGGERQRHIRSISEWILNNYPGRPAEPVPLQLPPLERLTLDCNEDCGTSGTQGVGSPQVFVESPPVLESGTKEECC

Sequence of Dual specificity tyrosine-phosphorylation-regulated kinase 1B (Q9Y463 whole entry): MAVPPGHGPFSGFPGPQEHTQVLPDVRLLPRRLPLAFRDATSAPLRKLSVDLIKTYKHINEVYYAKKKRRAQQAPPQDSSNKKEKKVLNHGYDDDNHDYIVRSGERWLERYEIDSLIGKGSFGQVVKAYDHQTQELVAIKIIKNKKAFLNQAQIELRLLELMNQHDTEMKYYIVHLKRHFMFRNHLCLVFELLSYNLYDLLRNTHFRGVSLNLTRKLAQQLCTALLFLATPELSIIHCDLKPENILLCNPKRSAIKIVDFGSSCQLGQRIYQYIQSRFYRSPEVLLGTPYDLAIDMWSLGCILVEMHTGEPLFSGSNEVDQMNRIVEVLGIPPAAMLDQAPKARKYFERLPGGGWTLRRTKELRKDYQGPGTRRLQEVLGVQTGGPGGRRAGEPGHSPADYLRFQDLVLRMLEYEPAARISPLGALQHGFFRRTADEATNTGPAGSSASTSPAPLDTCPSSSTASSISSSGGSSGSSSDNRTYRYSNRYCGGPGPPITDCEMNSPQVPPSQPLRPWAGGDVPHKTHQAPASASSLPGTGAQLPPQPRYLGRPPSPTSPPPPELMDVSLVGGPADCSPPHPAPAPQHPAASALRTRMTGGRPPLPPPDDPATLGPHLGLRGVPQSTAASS
Sequence of Serine/threonine-protein kinase Chk2 (O96017 whole entry): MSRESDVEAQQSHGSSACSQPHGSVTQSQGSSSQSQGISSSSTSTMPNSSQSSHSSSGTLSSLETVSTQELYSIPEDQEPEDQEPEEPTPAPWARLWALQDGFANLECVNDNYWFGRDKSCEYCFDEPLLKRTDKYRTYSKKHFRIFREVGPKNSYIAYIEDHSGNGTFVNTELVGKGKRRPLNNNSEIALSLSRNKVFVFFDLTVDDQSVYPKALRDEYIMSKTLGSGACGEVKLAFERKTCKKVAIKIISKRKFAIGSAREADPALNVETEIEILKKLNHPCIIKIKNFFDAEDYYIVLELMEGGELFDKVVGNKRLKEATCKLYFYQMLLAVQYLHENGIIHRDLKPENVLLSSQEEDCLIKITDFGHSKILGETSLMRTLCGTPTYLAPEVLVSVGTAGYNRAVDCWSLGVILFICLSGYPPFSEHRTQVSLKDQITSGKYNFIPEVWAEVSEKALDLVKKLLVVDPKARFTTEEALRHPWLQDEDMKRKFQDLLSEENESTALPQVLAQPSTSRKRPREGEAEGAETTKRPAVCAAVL
Sequence of Receptor tyrosine-protein kinase erbB-2 (P04626 whole entry): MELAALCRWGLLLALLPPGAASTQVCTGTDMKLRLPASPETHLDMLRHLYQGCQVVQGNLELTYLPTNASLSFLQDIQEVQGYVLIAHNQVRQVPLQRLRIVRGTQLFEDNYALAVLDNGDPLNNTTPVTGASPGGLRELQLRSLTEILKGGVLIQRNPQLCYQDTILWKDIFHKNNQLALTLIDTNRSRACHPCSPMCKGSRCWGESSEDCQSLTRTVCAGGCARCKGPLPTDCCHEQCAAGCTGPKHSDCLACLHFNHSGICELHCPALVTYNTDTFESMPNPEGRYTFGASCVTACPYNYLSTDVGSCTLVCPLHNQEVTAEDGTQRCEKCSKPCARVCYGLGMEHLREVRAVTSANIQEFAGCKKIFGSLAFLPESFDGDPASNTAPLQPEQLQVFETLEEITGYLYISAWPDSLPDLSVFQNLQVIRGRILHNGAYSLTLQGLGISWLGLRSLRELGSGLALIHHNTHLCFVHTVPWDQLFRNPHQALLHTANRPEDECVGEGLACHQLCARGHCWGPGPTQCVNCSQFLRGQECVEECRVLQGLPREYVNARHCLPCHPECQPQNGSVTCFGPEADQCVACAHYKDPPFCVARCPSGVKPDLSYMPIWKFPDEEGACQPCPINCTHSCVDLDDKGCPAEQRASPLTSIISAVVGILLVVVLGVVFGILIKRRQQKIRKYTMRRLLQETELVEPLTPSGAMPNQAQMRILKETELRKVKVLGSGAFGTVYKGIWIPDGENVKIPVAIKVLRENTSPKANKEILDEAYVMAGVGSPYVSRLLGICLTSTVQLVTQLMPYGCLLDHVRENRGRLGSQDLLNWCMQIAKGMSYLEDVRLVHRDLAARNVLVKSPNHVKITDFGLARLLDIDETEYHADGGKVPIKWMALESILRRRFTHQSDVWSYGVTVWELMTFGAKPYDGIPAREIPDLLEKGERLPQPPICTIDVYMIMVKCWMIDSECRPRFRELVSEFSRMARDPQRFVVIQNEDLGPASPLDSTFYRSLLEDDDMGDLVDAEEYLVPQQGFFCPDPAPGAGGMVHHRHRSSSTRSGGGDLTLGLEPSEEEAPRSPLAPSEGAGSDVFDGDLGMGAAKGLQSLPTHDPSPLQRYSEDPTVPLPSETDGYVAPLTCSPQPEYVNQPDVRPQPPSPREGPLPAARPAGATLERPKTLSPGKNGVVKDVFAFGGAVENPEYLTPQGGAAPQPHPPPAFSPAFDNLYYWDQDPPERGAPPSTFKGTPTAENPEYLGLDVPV
Sequence of Leukocyte tyrosine kinase receptor (P29376 whole entry): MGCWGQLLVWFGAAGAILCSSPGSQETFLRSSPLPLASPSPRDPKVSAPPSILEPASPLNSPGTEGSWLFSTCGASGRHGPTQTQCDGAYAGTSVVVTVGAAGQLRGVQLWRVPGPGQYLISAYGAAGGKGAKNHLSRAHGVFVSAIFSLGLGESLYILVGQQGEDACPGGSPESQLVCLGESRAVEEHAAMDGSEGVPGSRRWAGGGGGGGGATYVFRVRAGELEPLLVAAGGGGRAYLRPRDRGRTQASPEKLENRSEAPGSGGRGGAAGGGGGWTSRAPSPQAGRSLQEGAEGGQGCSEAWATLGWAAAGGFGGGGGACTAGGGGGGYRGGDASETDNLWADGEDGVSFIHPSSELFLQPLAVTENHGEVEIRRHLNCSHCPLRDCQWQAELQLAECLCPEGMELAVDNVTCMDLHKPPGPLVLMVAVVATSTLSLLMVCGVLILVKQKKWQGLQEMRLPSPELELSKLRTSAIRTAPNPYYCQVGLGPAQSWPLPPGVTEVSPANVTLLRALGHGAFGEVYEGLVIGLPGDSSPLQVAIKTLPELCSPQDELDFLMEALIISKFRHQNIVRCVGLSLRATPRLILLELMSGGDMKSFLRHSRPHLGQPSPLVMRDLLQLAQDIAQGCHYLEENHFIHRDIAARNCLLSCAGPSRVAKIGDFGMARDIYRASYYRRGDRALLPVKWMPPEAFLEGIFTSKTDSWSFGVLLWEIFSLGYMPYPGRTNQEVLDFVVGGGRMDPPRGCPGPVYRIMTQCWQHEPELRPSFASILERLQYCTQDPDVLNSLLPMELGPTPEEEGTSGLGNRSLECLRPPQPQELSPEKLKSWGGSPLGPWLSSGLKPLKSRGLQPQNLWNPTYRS
Sequence of Serine/threonine-protein kinase N2 (Q16513 whole entry): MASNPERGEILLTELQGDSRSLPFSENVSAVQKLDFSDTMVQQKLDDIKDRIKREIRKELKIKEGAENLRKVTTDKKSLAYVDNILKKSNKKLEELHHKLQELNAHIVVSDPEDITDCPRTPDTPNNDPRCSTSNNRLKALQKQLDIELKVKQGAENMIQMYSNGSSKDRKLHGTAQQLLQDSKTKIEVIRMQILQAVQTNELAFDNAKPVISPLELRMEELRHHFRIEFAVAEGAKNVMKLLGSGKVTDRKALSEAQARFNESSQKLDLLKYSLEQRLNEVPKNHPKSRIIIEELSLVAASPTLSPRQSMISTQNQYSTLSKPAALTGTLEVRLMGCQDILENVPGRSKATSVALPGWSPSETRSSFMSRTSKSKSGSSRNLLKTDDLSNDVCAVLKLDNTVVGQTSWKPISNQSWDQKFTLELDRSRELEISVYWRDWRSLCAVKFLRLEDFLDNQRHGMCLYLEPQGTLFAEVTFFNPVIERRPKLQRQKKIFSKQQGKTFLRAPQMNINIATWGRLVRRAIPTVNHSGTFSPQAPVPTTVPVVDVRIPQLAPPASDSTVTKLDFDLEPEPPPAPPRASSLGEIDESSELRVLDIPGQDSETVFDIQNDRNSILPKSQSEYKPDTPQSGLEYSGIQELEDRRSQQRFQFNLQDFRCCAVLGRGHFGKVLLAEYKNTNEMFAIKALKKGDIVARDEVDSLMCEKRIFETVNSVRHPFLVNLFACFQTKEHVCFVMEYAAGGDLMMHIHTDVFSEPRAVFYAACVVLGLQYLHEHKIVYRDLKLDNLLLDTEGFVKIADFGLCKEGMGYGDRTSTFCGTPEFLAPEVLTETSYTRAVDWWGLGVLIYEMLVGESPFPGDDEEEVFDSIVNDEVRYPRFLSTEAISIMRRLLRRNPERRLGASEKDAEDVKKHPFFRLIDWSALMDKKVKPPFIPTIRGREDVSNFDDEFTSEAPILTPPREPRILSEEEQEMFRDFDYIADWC

Compound: O=C1C=C(N2CCOCC2)c2ccccc2C1=O
IC50 (Hexokinase HKDC1): 1.02 µM (active)
AC50 (INS1): 4.72 µM (active)
IC50 [1]: > 39.8 µM (not active)

Ki [2]: > 2.51 µM (inactive)
Ki [3]: > 1.58 µM (inactive)
Ki [4]: > 1.58 µM (inactive)
Ki [5]: > 7.94 µM (inactive)
Ki (Misshapen-like kinase 1): 6.31 µM (active)
Ki [6]: > 7.94 µM (inactive)
Ki [7]: 1 µM (active)
Ki [8]: > 5.01 µM (inactive)
Ki [9]: > 6.31 µM (inactive)
Ki [10]: > 7.94 µM (inactive)
Ki [11]: > 1.58 µM (inactive)
Ki [12]: 3.98 µM (active)
Ki [13]: > 2.51 µM (inactive)
Compound: N#Cc1ccc2[nH]c(O)c(-c3ccc(CN4CCOCC4)cn3)c2c1 [AZD-1080]

Compound: CCc1oc2ccccc2c1C(=O)c1cc(Br)c(O)c(Br)c1 [BENZBROMARONE]
IC50 (Aminopeptidase N): 62.8 µM (active)
IC50 [14]: 12.8 µM (active)
